Data as given in patent publication US20120046357A1, “Benzamide and Napthamide Derivatives Inhibiting Nuclear Factor-Kappa (B) - (NK-kB)” (Profectus Biosciences, Inc., priority 2009, published 2012).
Where a name gives a salt, the structure may show the parent alone.

Experiments:
NF-κB [1] = assay: 293/NFkB-luc reporter cell assay (TNF-α induced luciferase expression); assay type: cell-based; settings: 293 cells; for EC50: pNF-κB-luc reporter, 2 h pretreatment, 20 ng/ml TNF-α 18 h
Description: (§1) Two reporter cell assays were used to determine the ability of the compound of Example 10 to inhibit NF-κB driven transcription. The first assay was a 293-cell based assay with a stably integrated pNF-κB-luc reporter plasmid containing 3 NF-κB promoter elements. The second assay was a 293-cell based assay with a stably integrated pTRH1-NF-κB-dscGFP reporter containing 4 NF-κB promoter elements. Cells were treated with 0, 0.2, 1, 10, 20 and 40 μM of the compound of Example 10 for 2 hours then were induced with 20 ng/ml TNF-α for 18 hours. Following the induction, luminescence or fluorescence was quantified using a Beckman-Coulter 2300 plate reader. […] These values represent the median value generated from three independent experiments. As a control, 0.5% DMSO treated and untreated cells were compared to verify that the compound of Example 10 had no effect on the expression of luciferase or in the readout of the assay. There was a slight decrease in the output from the assay in the DMSO treated population although it was not statistically significant. As a result of the controls, the decrease in activity in the drug treated samples was compared to the DMSO control sample.

NF-κB [2] = assay: NF-κB/293/GFP reporter cell assay (TNF-α induced GFP expression); assay type: cell-based; settings: for EC50: pTRH1-NF-κB-dscGFP reporter, 2 h pretreatment, 20 ng/ml TNF-α 18 h, read-out: NF-KB/293/GFP EC50
Description: as §1

p65 (RelA) = target: T1, p65 (RelA) (Homo sapiens, UniProt Q04206); assay: TransAM NF-κB family DNA binding ELISA, p65; assay type: biochemical; settings: binding to NF-κB consensus oligonucleotide
T1 construct: purchased Active Motif
T1 sequence (Q04206 whole entry): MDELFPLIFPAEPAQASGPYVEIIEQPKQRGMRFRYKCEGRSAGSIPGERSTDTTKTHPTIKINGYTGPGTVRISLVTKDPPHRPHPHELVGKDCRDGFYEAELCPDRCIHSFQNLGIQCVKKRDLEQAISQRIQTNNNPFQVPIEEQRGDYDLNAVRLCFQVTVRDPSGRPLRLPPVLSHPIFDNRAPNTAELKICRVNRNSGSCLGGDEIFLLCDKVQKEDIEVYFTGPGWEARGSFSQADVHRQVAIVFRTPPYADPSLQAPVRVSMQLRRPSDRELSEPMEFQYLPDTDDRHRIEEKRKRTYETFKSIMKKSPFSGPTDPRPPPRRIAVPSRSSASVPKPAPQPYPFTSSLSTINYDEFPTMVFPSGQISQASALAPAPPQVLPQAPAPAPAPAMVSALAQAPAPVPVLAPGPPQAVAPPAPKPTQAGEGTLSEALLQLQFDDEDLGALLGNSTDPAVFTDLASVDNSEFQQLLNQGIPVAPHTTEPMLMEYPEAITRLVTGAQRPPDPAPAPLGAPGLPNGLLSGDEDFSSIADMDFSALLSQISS
Description: (§2) The binding activity of NF-κB heterodimer or homodimer subunits from activated nuclear extracts or purified recombinant NF-κB proteins exposed to the drug compounds was evaluated using the TransAM NF-κB Family binding ELISA (Active Motif). 3-5 μg of nuclear extracts from TNFα activated Hela or Raji cells (Active Motif) or 20 ng of purified recombinant proteins (p65 and p50 from Active Motif, p52 from Santa Cruz) were incubated for 1 hour at room temperature with 20 μL drug compounds diluted in Complete Lysis buffer without DTT. Treated samples were then transferred to 30 μL Complete Binding Buffer (with DTT) in microplate wells pre-coated with the NF-κB consensus oligonucleotide. […] The plate was incubated for 1 hour at room temperature with gentle shaking and then washed 3 times with 200 μL 1× Wash Buffer. NF-κB p65, p50, p52, RelB, or c-Rel subunits bound to the plate were detected with 100 μL of the primary antibody (diluted 1:1000 in 1× Antibody Buffer) specific for that subunit. The plate was incubated for 1 hour at room temperature and then washed 3 times with 200 μL 1× Wash Buffer. Next, 100 μL of a HRP conjugated goat anti-rabbit antibody (diluted 1:1,000 in 1× Antibody Buffer) was added to each well. The plate was incubated for 1 hour at room temperature and then washed 4 times with 200 μL 1× Wash Buffer. 100 μL of room temperature Developing Solution was added to each well. The reaction was allowed to develop for 2-10 minutes until a medium dark blue color developed (depending on the subunit activity in the lot of extract or lot of recombinant protein used) and then the reaction was stopped with 100 μL Stop Solution yielding a yellow color. Absorbance was recorded using a Becton-Dickinson DTX 880 Multimode Detector at 450 nm with a reference wavelength subtracted at 620 nm. FIGS. 2, 3 and 4 illustrate the effect of Example 10 on inhibiting RelA, RelB and c-Rel binding to NF-κB sites.

c-Rel = target: T2, c-Rel (Homo sapiens, UniProt Q04864); assay: TransAM NF-κB family DNA binding ELISA, c-Rel; assay type: biochemical; settings: for IC50: binding to NF-κB consensus oligonucleotide, cells without % sign
T2 sequence (Q04864 2-619 limits assumed): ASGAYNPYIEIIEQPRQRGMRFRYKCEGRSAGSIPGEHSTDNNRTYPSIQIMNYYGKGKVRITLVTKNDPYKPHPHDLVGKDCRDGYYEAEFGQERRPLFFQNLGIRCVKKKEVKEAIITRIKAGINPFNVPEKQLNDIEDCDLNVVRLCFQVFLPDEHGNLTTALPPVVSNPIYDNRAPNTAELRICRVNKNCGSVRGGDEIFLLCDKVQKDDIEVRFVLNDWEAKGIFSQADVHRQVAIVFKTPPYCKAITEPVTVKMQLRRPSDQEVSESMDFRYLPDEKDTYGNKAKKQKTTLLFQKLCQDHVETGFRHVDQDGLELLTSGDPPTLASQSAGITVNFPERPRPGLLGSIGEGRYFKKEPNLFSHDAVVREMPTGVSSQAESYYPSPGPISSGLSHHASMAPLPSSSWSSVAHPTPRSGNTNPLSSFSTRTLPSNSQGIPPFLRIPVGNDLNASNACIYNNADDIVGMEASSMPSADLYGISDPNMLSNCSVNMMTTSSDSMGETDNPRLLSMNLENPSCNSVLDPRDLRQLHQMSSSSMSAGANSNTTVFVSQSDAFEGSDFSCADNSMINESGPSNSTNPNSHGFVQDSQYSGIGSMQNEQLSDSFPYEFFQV
Description: as §2

[3] = Homo sapiens, HEK293, 293 cells

Structure (SMILES) | EC50 (NF-κB [1]; 293/NFkB-luc) | EC50 (NF-κB [2]; [3]) | IC50 (p65 (RelA)) | inhibition at 5 µM (c-Rel) | IC50 (NF-κB [1]; Homo sapiens, HEK293, median of three independent experiments, 20 ng/ml TNF-α, read-out: median IC50, inhibition of expression of the luciferase gene) | IC50 (NF-κB [2]; Homo sapiens, HEK293, median of three independent experiments, 293 cells, 20 ng/ml TNF-α, read-out: median IC50, inhibition of expression of the Green fluorescent protein gene) | IC50 (c-Rel) | EC50 (NF-κB [1]; trifluoroacetate) | EC50 (NF-κB [2]; 293 cells, trifluoroacetate)
O=C(NC1=CC(=O)C2OC2C1O)c1ccc(C(F)(F)F)cc1O (racemic) [Example 1, 2-hydroxy-N-(2-hydroxy-5-oxo-7-oxabicyclo[4.1.0]hept-3-en-3-yl)-4-(trifluoromethyl)benzamide] | 36 µM | 3.4 µM | 66.3 µM | 1% | – | – | – | – | –
O=C(NC1=CC(=O)C2OC2C1O)c1ccc(Cl)cc1O (racemic) [Example 2, (±)-4-chloro-2-hydroxy-N-(2-hydroxy-5-oxo-7-oxabicyclo[4.1.0]hept-3-en-3-yl)benzamide] | 12 µM | 7 µM | 26.3 µM | 7% | – | – | – | – | –
Cc1ccc(C(=O)NC2=CC(=O)C3OC3C2O)c(O)c1 (racemic) [Example 3, (±)-2-hydroxy-N-(2-hydroxy-5-oxo-7-oxabicyclo[4.1.0]hept-3-en-3-yl)-4-methylbenzamide] | 20 µM | 9 µM | 17 µM | 5% | – | – | – | – | –
Cc1cccc(C(=O)NC2=CC(=O)C3OC3C2O)c1O (racemic) [Example 4, (±)-2-hydroxy-N-(2-hydroxy-5-oxo-7-oxabicyclo[4.1.0]hept-3-en-3-yl)-3-methylbenzamide] | 19 µM | 18 µM | 36.3 µM | 0% | – | – | – | – | –
COc1ccc(C(=O)NC2=CC(=O)C3OC3C2O)c(O)c1 (racemic) [Example 5, (±)-2-hydroxy-N-(2-hydroxy-5-oxo-7-oxabicyclo[4.1.0]hept-3-en-3-yl)-4-methoxybenzamide] | 32 µM | 6.1 µM | 14.2 µM | 6% | – | – | – | – | –
O=C(NC1=CC(=O)C2OC2C1O)c1cccc(Cl)c1O (racemic) [Example 6, (±)-3-chloro-2-hydroxy-N-(2-hydroxy-5-oxo-7-oxabicyclo[4.1.0]hept-3-en-3-yl)benzamide] | 37 µM | 14 µM | 19.4 µM | 7% | – | – | – | – | –
O=C(NC1=CC(=O)C2OC2C1O)c1cc2ccccc2cc1O (racemic) [Example 7, (±)-3-hydroxy-N-(2-hydroxy-5-oxo-7-oxabicyclo[4.1.0]hept-3-en-3-yl)-2-naphthamide] | 21 µM | 4.7 µM | 488 µM | 2% | – | – | – | – | –

Second part, the compound after the results:

EC50 (NF-κB [1]; 293/NFkB-luc) | EC50 (NF-κB [2]; [3]) | IC50 (p65 (RelA)) | inhibition at 5 µM (c-Rel) | IC50 (NF-κB [1]; Homo sapiens, HEK293, median of three independent experiments, 20 ng/ml TNF-α, read-out: median IC50, inhibition of expression of the luciferase gene) | IC50 (NF-κB [2]; Homo sapiens, HEK293, median of three independent experiments, 293 cells, 20 ng/ml TNF-α, read-out: median IC50, inhibition of expression of the Green fluorescent protein gene) | IC50 (c-Rel) | EC50 (NF-κB [1]; trifluoroacetate) | EC50 (NF-κB [2]; 293 cells, trifluoroacetate) | Structure (SMILES)
7.1 µM | 7.1 µM | 45.2 µM | 3% | – | – | – | – | – | O=C(NC1=CC(=O)C2OC2C1O)c1ccc2ccccc2c1O (racemic) [Example 8, (±)-1-hydroxy-N-(2-hydroxy-5-oxo-7-oxabicyclo[4.1.0]hept-3-en-3-yl)-2-naphthamide]
27 µM | 5.2 µM | 17.7 µM | 20% | – | – | – | – | – | O=C(NC1=CC(=O)C2OC2C1O)c1cc(Br)ccc1O (racemic) [Example 9, (±)-5-bromo-2-hydroxy-N-(2-hydroxy-5-oxo-7-oxabicyclo[4.1.0]hept-3-en-3-yl)benzamide]
8.7 µM | 2.5 µM | 3.9 µM | – | 8.7 µM | 2.5 µM | 17 µM | – | – | CN(C)c1ccc(C(=O)NC2=CC(=O)C3OC3C2O)c(O)c1 (racemic) [Example 10, (±)-4-(dimethylamino)-2-hydroxy-N-(2-hydroxy-5-oxo-7-oxabicyclo[4.1.0]hept-3-en-3-yl)benzamide]
7.7 µM | 5 µM | 479 µM | – | – | – | 16 µM | – | – | COc1ccc2cc(O)c(C(=O)NC3=CC(=O)C4OC4C3O)cc2c1 (racemic) [Example 11, (±)-3-hydroxy-N-(2-hydroxy-5-oxo-7-oxabicyclo[4.1.0]hept-3-en-3-yl)-7-methoxy-2-naphthamide]
8 µM | 2.4 µM | 241 µM | – | – | – | 3.7 µM | – | – | O=C(NC1=CC(=O)C2OC2C1O)c1cc2cc(Br)ccc2cc1O (racemic) [Example 15, (±)-7-bromo-3-hydroxy-N-(2-hydroxy-5-oxo-7-oxabicyclo[4.1.0]hept-3-en-3-yl)-2-naphthamide]
8.7 µM | 2.6 µM | 1.5 µM | – | – | – | 8.1 µM | – | – | COc1c(C(=O)NC2=CC(=O)C3OC3C2O)ccc(F)c1F (racemic) [Example 16, (±)-3,4-difluoro-N-(2-hydroxy-5-oxo-7-oxabicyclo[4.1.0]hept-3-en-3-yl)-2-methoxybenzamide]
3.7 µM | 6.7 µM | 295 µM | – | – | – | 232 µM | – | – | Cc1ccc(C(C)C)c(C(=O)NC2=CC(=O)C3OC3C2O)c1O (racemic) [Example 17, (±)-2-hydroxy-N-(2-hydroxy-5-oxo-7-oxabicyclo[4.1.0]hept-3-en-3-yl)-6-isopropyl-3-methylbenzamide]
– | – | 3 µM | – | – | – | 14 µM | 7.5 µM | 1.7 µM | CN(C)c1ccc(C(=O)NC2=CC(=O)C3OC3C2O)c(O)c1 (racemic) [Example 19, (±)-4-(dimethylamino)-2-hydroxy-N-(2-hydroxy-5-oxo-7-oxabicyclo[4.1.0]hept-3-en-3-yl)benzamide trifluoroacetate]
4.6 µM | 1.3 µM | 0.91 µM | – | – | – | 1.9 µM | – | – | COc1cc(N(C)C)ccc1C(=O)NC1=CC(=O)C2OC2C1O (racemic) [Example 20, (±)-4-(dimethylamino)-N-(2-hydroxy-5-oxo-7-oxabicyclo[4.1.0]hept-3-en-3-yl)-2-methoxybenzamide]
